Tests used:
[1] = system: neuraminidase (NA) of Influenza A/Korea/2785/2009 (H275Y mutation); type: biochemical, Influenza A virus
[2] = system: virus showing oseltamivir resistance due to the H275Y mutation; type: binding, influenza virus
[3] = system: neuraminidase site of oseltamivir-resistant virus (mutant type); parameters: species or system influenza virus

| SMILES | inhibition of NA activity of mutant-type virus compared with wild-type virus [1] | affinity for H275Y oseltamivir-resistant virus relative to oseltamivir sensitive virus [2] | affinity for mutant type relative to wild type [3] |
| --- | --- | --- | --- |
| CCC(CC)O[C@@H]1C=C(C(=O)OCCCCCCN)C[C@H](N)[C@H]1NC(C)=O [oseltamivir hexylamine] | inhibited the NA activity of the mutant-type virus (H275Y mutation) more significantly than the NA activity of the wild-type virus | about 1000 fold | – |
| CCC(CC)O[C@@H]1C=C(C(=O)OCCCCCCS)C[C@H](N)[C@H]1NC(C)=O [oseltamivir hexylthiol] | inhibited the NA activity of the mutant-type virus (H275Y mutation) more significantly than the NA activity of the wild-type virus | about 1000 fold | about 250 fold |

Reference: US10336693B2 (priority 2015, dated 2019)
